Test results published in patent publication US20080206287A1, “Use of cyclosporin A to sensitize resistant cancer cells to death receptor ligands” (priority 2006, published 2008).
Entries after “also recorded” stand apart in the source; their conditions may differ. Residues, ends and D or L forms follow the SMILES beside them. *: point of attachment. Cbz = O=C(OCc1ccccc1)*; CH2F = FC*

What was measured:
PPC-1 cells [1] = experiment: PPC-1 cell viability (MTT) with or without CH-11 anti-FAS antibody; type: cell-based; details: Homo sapiens, PPC-1, read-out: EC50 as a FAS-sensitizer in PPC1 cells
Experimental: High throughput screening. Screens were performed using a fully integrated, programmable robotic liquid handling system (Biomek® FX, Beckman-Coulter Inc., Fullerton, Calif.), with integrated plate reader (LJL analyst HT 96-384, Sunnyvale, Calif.) and environmentally controlled plate carousel set at 37° C. and 5% CO2:95% air. PPC-1 cells (1×10^4) were seeded overnight into 96 well, flat-bottom plates (Costar, Cambridge, Mass.) in 100 μL of medium containing 2.5% FCS. The next day, aliquots from the 50,000 compound Diversa library were added at a final concentration of 7.5 μg/mL (about 25 μM) in a final concentration of 0.5% (v:v) dimethylsulfoxide (DMSO). CH-11 antibody (100 ng/mL) was then added, and the cells were incubated for 24 hours before assessing cell viability by a 3-(4,5-Dimethylthiazol-2-yl)-2,5-diphenyltetrazolium Bromide (MTT) dye reduction assay (Sigma).
(§1) Cell death assays. Cell viability was measured by MTT and MTS assays, essentially as described in Schimmer et al. (Cancer Cell 5:25-35, 2004). Absorbance readings were plotted against a standard curve to derive the corresponding cell number, and cell viability was expressed as a percentage relative to untreated cells. Apoptosis was measured by flow cytometric analysis of Annexin V surface expression after staining cells with FITC-anti-Annexin V and propidium iodide (PI) (Biovision, Mountain View, Calif.), as described in Pedersen et al. (Blood 100:2965-72, 2002).
Statistics. Cytotoxicity induced by compounds used in combination with conventional agents (e.g., CH-11, TRAIL, VP-16 and staurosporine) was evaluated for evidence of synergy toxicity by comparing the slopes of the dose-response curves. If the combination of the potential sensitizing compound with the conventional agent increased the slope of the dose-response curve compared to the slopes of either the sensitizer or the conventional agent alone, then the interaction was considered synergistic. […] Statistical significance was defined as a p<0.01, using two-sided tests. Synergy was confirmed by performing multiple drug dose-effect calculations using the Median Effect methods as described in Chou (“The Median-Effect Principle and the Combination Index for Quantitation of Synergism and Antagonism.” In: D. C. Rideout and T. C. Chou (eds.), Synergism and Antagonism in Chemotherapy, pp. 61-102: Academic Press, Inc., 1991).
Identification of small molecule FAS sensitizers. Resistance to death receptor ligands may permit malignant cells to escape immune surveillance and limit the clinical efficacy of recombinant death receptor ligands such as TRAIL. To identify small molecules that restore sensitivity to death receptor ligands, a cell-based high throughput screen was performed using the FAS and TRAIL-resistant prostate cancer cell line PPC-1 and a commercially available 50,000 compound library. The screens were performed in 96 well plates, to which compounds were added at 7.5 μg/ml (about 25 μM), followed by agonistic anti-FAS monoclonal antibody CH-11 (100 ng/mL). Cell viability was measured 24 hours later by MTT assay. […] The coefficient of variation (CV) for PPC-1 cells treated with CH-11 alone was determined to be 5%, based on 90 replicate determinations. A 50% decrease in cell viability was used as a cut-off for scoring hits.
From the primary screen of 50,000 compounds, 313 reproducible hits were obtained. To determine whether any of the 313 compounds were toxic molecules as opposed to FAS-sensitizers, the 313 compounds were evaluated in secondary screens where PPC-1 cells were treated with increasing concentrations of the compounds in the presence or absence of CH-11 antibody. Through these secondary screens, nine sensitizers were identified that increased CH-11-mediated killing above the cell death produced by treatment of the cells with the compound alone (Table 1). […]

FLIP [2] = experiment: FLIP protein immunoblot; type: cell-based, human
Experimental: Immunoblot analysis. Protein extracts were obtained by washing cells with phosphate-buffered saline (PBS) [pH 7.4] and suspending the cells in lysis buffer [10 mM Tris (pH 7.4), 150 mM NaCl, 0.1% Triton X-100, 0.5% sodium deoxycholate, and 5 mM EDTA] containing protease inhibitors (Complete tablets; Roche, Indianapolis, Ind.). Immunoblot assays were performed as described in Carter et al. (Blood 105:4043-4050, 2005). Briefly, equal amounts of protein as determined by a Bradford assay (Bradford, Anal. Biochem. 72:248-54, 1976) were subjected to SDS-PAGE (4-20% gradient gels from ISC BioExpress, Kaysville, Utah), followed by transfer to nitrocellulose membranes. Membranes were incubated with mouse monoclonal anti-human FLIP (NF6 clone) (1:500 v/v) (Alexis, San Diego, Calif.), 1:1,000 (v/v) anti-aspase-8 clone 5F7 (Upstate) and mouse monoclonal anti-tubulin (1:2000 v/v) (Sigma Inc). Secondary antibodies consisted of horseradish peroxidase-conjugated goat anti-rabbit IgG or goat anti-mouse IgG (Bio-Rad, Hercules, Calif.). Detection was performed by the enhanced chemiluminescence method (Pierce, Rockford, Ill.).
Effects of sensitizing compounds on FLIP protein. Since FAS-sensitizing compounds 6094911 and 5809354 modulate the extrinsic pathway downstream of TNF-family death receptors but upstream of effector caspases, the effects of those compounds on expression of FLIP, an intracellular antiapoptotic protein that binds caspases-8 and -10 and is capable of suppressing death receptor signaling at a proximal point within the extrinsic pathway, was examined. For these experiments, PPC-1 cells were treated with sensitizing compounds in the presence or absence of CH-11 antibody, then cell lysates were prepared 24 hours later, and analyzed by immunoblotting for FLIP.
The levels of the short isoform of FLIP were less than 5% of total FLIP protein as measured by immunoblotting and quantitative densitometry. Therefore, given the very low levels of the short isoform, the analysis was limited to the effects of the compounds on the long isoform of FLIP.

PPC-1 cells [3] = experiment: Extrinsic (CH-11, TRAIL) versus intrinsic (VP-16, STS) pathway stimuli, MTT; type: cell-based; details: MTT 24 hours
Text: Identification of small molecules that specifically sensitize to extrinsic pathway. The nine compounds identified using anti-FAS antibody screening theoretically could non-specifically sensitize tumor cells to apoptotic stimuli or they could be selective for the extrinsic pathway. To distinguish between these two possibilities, the effects of compounds on apoptosis induced by extrinsic pathway stimuli (e.g., CH-11 antibody; TRAIL) were compared to the effects on the intrinsic pathway stimuli (e.g., etoposide [VP16]; staurosporine [STS]). Accordingly, PPC-1 cells were treated with various concentrations of compounds with or without CH-11, TRAIL, VP-16, or STS, and 24 hours later, cell viability was measured by MTT assays.

PPC-1 cells [4] = details: positive control, Kim et al. 2002; cited from earlier work
FLIP [5] = details: Kim et al. 2002; cited from earlier work
PPC-1 cells [6] = experiment: Annexin V apoptosis with CH-11, sensitizers and caspase inhibitors; type: cell-based; details: CH-11 and sensitizers such as 6094911, 5809354, 5569100, 12 hours
Experimental: as §1
Caspase-dependent induction of apoptosis by combination treatment with CH-11 and FAS-sensitizing compounds. To further assess the mechanism of the 8 compounds that selectively modulated tumor sensitivity to extrinsic pathway stimuli, the effects of […]-Val-Ala-Asp-fluoromethylketone (zVAD-fmk), a broad-spectrum irreversible inhibitor of caspase-family proteases (Enzyme Systems, Dublin, Calif.) was tested. Accordingly, PPC-1 cells were treated with CH-11 and sensitizers such as 6094911, 5809354, and 5569100 with and without zVAD-fmk (100 μM) for 12 hours. Apoptosis was then measured by Annexin V staining.

Cn1c(=N)n(CC(=O)c2cc(C(C)(C)C)c(O)c(C(C)(C)C)c2)c2ccccc21 [compound 5541203, 1-(3,5-Di-tert-butyl-4-hydroxy-phenyl)-2-(2-imino-3-methyl-2,3-dihydro-benzoimidazol-1-yl)-ethanone]
EC50 (PPC-1 cells [1]): 25.7 µM | levels of FLIP protein (long isoform) (FLIP [2]; PPC-1 cells, with or without CH-11, 24 hours, immunoblot): had little effect

C[n+]1ccn2c3c(c4cc(C5CCCCC5)ccc42)CCCc31.[I-] [compound 5362611, 8-Cyclohexyl-3-methyl-5,6-dihydro-4H-pyrazino[3,2,1-jk]carbazol-3-ium; iodide]
sensitization to extrinsic (CH-11, TRAIL) and intrinsic (VP-16, STS) pathway stimuli (PPC-1 cells [3]): sensitized to both the death receptor (extrinsic) and mitochondrial pathway (intrinsic) stimuli

CC1(C)CC[C@]2(C(=O)O)CC[C@]3(C)[C@H](C(=O)C=C4[C@@]5(C)C=C(C#N)C(=O)C(C)(C)[C@@H]5CC[C@]43C)[C@@H]2C1 [CDDO, 2-cyano-3,12-dioxooleana-1,9-dien-28-oic acid]
sensitization of PPC-1 cells to TNF-family death receptors and ligands (PPC-1 cells [4]): sensitize PPC-1 cells to TNF-family death receptors and ligands | FLIP protein levels (FLIP [5]): reduce FLIP protein levels; also recorded: reduces FLIP expression

COC(=O)C[C@H](NC(=O)[C@H](C)NC(=O)[C@@H](NC(=O)OCc1ccccc1)C(C)C)C(=O)CF [zVAD-fmk, reference compound] (Cbz-Val-Ala-Asp(OMe)-CH2F)
effect of caspase inhibitor on apoptosis by CH-11 plus sensitizers (PPC-1 cells [6]): blocked sensitization to CH-11 | effect of caspase inhibitor pre-treatment on reductions in FLIP protein (FLIP [2]; pre-treatment before 5809354 or 5569100): did not prevent reductions in FLIP protein
